Here are results for 2 molecules from US7208612B2 (priority 2001, dated 2007).

In experiment [1] the test system is V. harveyi LuxS- strain. In kind it is cell-based, Vibrio harveyi.
Experiment [2] concerns V. harveyi LuxP+, LuxS+ reporter strain (AI-2 detection system). Briefly: Bioluminescence (light production) bioassay in LuxP+, LuxS+ reporter strain that produces its own AI-2. In kind it is cell-based, Vibrio harveyi.

Structures are written as SMILES.

As to `C[C@@H](O)CC(=O)N[C@H]1CCOC1=O` [AI-1], the response to autoinducer entry in experiment [1] (latter strains (incl. LuxS-), same experimental conditions) was “wild-type responses”.
Take `OB(O)O` [Boric acid]: the “induction of light production” value in experiment [2] (addition of 1 mM boric acid during delay period) is listed as “substantial induction”. In experiment [2] (boric acid concentrations as low as 10 μM), the “induction of light production (fold)” value was 10 fold. Also, the effect on bioluminescence result in experiment [1] (LuxS- strain) is given as “no effect”.
